Experimental data reported in US11673916B2, “Neuroprotective peptides and methods of their use” (University of Pittsburgh—Of the Commonwealth System of …, priority 2020, dated 2023).

Test system: MCAo mouse model of ischemic stroke
Test: Murine neurological score (MNS) after MCAo
Assay type: in vivo
Settings: 50 minutes left MCAo, IP injection at one and six hours post-reperfusion, versus scrambled control (FIG. 6E)
Experimental: To analyze neurological deficits following MCA stroke, testing was performed by a blinded experimenter on additional cohorts, both at baseline (all initial scores were 0) and on post-stroke days 1, 2, 3, 5, 7, 10, 14, 21, 28, 35, and 42. An objective murine neurological score (Table 3) was assigned on each date, ranging from 0 (no neurological deficit) to 8 (stroke-related death) (Yeh et al., J Neurosci. 37: 5648-5658, 2017).
Twenty-four hours following cerebral reperfusion after MCAo, total infarct ratios were analyzed (FIG. 6B) in tetrazolium chloride-stained brain sections (FIGS. 6B and 6C). […] Preparation of peptides, MCAo surgery and injection, as well as infarct analysis were all randomized and performed blindly. A second cohort of mice was subjected to 50-minute MCAo, followed by TAT-DP-2 or TAT-Sc-2 injection at one and six-hours post-reperfusion (FIG. 6A). A different, blinded observer then analyzed each animal and assigned an objective murine neurological score (MNS; Table 3) to each mouse over a 42-day period. As the MNS is based solely on characteristic motor deficits developed following left MCAo, all animals initially scored zero on the scale.

Sequence: YGRKKRRQRRRSIDSFTS [TAT-DP-2, TAT-linked declustering peptide 2]
- murine neurological score (MNS) over 42 days post-MCAo: significant preservation of favorable neurological score
